What was measured:
Carbonic anhydrase 12 = Carbonic anhydrase 12 (Homo sapiens, UniProt O43570)
Description: Inhibition of human recombinant CA-12 after 15 mins by stopped-flow CO2 hydrase assay

Carbonic anhydrase 7 = Carbonic anhydrase 7 (Homo sapiens, UniProt P43166); assay: Inhibition of human recombinant CA-7 after 15 mins by stopped-flow CO2 hydrase assay
Carbonic anhydrase 1 = Carbonic anhydrase 1 (Homo sapiens, UniProt P00915); assay: Inhibition of human recombinant CA-1 after 15 mins by stopped-flow CO2 hydrase assay
Carbonic anhydrase 2 = Carbonic anhydrase 2 (Homo sapiens, UniProt P00918); assay: Inhibition of human recombinant CA-2 after 15 mins by stopped-flow CO2 hydrase assay
Carbonic anhydrase 9 = Carbonic anhydrase 9 (Homo sapiens, UniProt Q16790)
Description: Inhibition of human recombinant CA-9 after 15 mins by stopped-flow CO2 hydrase assay

Mus musculus [1] = assay: Inhibition of oxaliplatin-induced neuropathic pain in po dosed CD-1 mouse model assessed as latency to pain-related behavior after 15 to 45 mins by cold plate test; type: functional
Mus musculus [2] = assay: Inhibition of oxaliplatin-induced neuropathic pain in po dosed CD-1 mouse model assessed as latency to pain-related behavior after 15 to 45 mins by cold plate test relative to acetazolamide; type: functional

Chain of Carbonic anhydrase 12 (O43570 whole entry): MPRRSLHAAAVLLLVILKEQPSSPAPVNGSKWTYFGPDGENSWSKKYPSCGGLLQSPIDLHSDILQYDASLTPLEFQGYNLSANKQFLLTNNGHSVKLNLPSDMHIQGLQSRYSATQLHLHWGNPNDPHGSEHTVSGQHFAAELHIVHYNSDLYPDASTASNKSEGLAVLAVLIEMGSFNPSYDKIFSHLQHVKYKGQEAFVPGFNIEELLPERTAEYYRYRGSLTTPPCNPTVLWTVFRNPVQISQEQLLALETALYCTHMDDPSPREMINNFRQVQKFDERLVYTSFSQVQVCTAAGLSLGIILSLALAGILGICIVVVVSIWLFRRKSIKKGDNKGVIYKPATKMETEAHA
Chain of Carbonic anhydrase 1 (P00915 whole entry): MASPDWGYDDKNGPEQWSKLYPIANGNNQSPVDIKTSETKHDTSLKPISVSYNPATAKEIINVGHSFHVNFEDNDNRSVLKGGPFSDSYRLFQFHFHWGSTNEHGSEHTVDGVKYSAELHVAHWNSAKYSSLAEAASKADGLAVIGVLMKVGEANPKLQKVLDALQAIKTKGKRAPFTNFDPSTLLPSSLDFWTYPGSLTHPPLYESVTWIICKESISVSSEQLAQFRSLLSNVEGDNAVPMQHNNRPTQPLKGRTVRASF
Chain of Carbonic anhydrase 7 (P43166 whole entry): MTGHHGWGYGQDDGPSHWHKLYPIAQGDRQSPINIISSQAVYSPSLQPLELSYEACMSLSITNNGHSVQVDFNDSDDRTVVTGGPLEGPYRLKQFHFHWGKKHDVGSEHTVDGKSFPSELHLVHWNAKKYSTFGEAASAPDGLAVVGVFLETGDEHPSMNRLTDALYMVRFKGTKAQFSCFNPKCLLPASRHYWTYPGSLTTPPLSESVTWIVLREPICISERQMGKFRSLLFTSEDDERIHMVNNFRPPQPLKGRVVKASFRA

SMILES | Ki (Carbonic anhydrase 12) | Ki (Carbonic anhydrase 7) | Ki (Carbonic anhydrase 1) | Ki (Carbonic anhydrase 2) | Ki (Carbonic anhydrase 9) | inhibition (Mus musculus [1]) | Ratio (Mus musculus [2]) | minimal effective dose (Mus musculus [1]; CD-1, po, read-out: MED)
NS(=O)(=O)c1ccc(OCc2ccc(F)cc2)cc1 | 8 nM | 9.7 nM | 315 nM | 23.8 nM |  |  |  | 
C=CCOc1ccc(S(N)(=O)=O)cc1 | 6.8 nM | 9.9 nM |  |  | 13.5 nM |  |  | 
CCCOc1ccc(S(N)(=O)=O)cc1 | 7.9 nM | 10.1 nM | 780 nM | 12.8 nM | 13.2 nM |  |  | 
NS(=O)(=O)c1nc2ccc(OCc3ccccc3)cc2s1 | 2.5 nM | 7.7 nM | 48.1 nM | 7.6 nM |  |  |  | 
NS(=O)(=O)c1ccc(OCc2ccc(Br)cc2)cc1 | 6.4 nM | 8.9 nM | 246 nM | 27.8 nM | 3.5 nM |  |  | 
NS(=O)(=O)c1nc2ccc(OCC#Cc3ccccc3)cc2s1 | 6.2 nM | 73.8 nM | 2420 nM | 52.1 nM | 10.3 nM |  |  | 
NS(=O)(=O)c1ccc(OCc2ccc([N+](=O)[O-])cc2)cc1 | 0.72 nM | 0.9 nM | 143 nM | 1.4 nM | 1.3 nM |  |  | 
NS(=O)(=O)c1ccc(OCCc2ccccc2)cc1 | 1.2 nM | 9.4 nM | 207 nM | 7.8 nM | 2.4 nM |  |  | 
NS(=O)(=O)c1ccc(OCC#Cc2ccccc2)cc1 | 33.8 nM | 97.2 nM | 3450 nM | 41.6 nM | 21.6 nM |  |  | 
CCCCOc1ccc(S(N)(=O)=O)cc1 | 8.5 nM | 9.8 nM | 797 nM | 7.3 nM | 10.1 nM |  |  | 
NS(=O)(=O)c1ccc(OCCN2CCOCC2)cc1 | 10.7 nM | 86.4 nM | 453 nM | 31.7 nM |  |  |  | 
C#CCN(CC#C)c1ccc(S(N)(=O)=O)cc1 | 4.9 nM | 8.6 nM | 6400 nM | 1780 nM | 9 nM |  |  | 
CCOc1ccc(S(N)(=O)=O)cc1 | 13.6 nM | 9.5 nM | 246 nM | 23.1 nM | 8.1 nM | Dose-dependent effect | 3 | 
NS(=O)(=O)c1ccc(OCC(c2ccccc2)c2ccccc2)cc1 | 50.4 nM | 70.7 nM | 5680 nM | 22.1 nM | 34.1 nM |  |  | 
C#CCOc1ccc(S(N)(=O)=O)cc1 | 2.3 nM | 9.6 nM | 2340 nM | 28.7 nM |  |  |  | 
NS(=O)(=O)c1ccc(OCc2c(F)c(F)c(F)c(F)c2F)cc1 | 0.75 nM | 8.9 nM | 231 nM | 26 nM | 0.86 nM |  |  | 
NS(=O)(=O)c1ccc(OCc2ccccc2)cc1 | 10.5 nM | 8.3 nM | 762 nM | 20.3 nM | 17.9 nM |  |  | 
NS(=O)(=O)c1ccc2c(c1)CCN2C(=O)C(F)(F)F | 4.1 nM | 8.3 nM | 34.3 nM | 9.2 nM | 6.9 nM |  |  | 
CC(=O)Nc1nnc(S(N)(=O)=O)s1 [ACETAZOLAMIDE] |  |  |  |  |  |  |  | 30 mg/kg

Reference: ChEMBL document CHEMBL3399945, “A class of sulfonamide carbonic anhydrase inhibitors with neuropathic pain modulating effects” (Bioorg Med Chem, 2015)
